Data on 1 molecule can be found in patent publication US20210051954A1, “METHOD FOR INCREASING THE RESISTANCE OF A CEREAL PLANT” (BASF AGROCHEMICAL PRODUCTS B.V., priority 2018, published 2021).

One assay has as its system Maize (Corn). Briefly: % germination in maize (corn) by drench treatment, 21 days after planting. It is filed as in vivo. As to conditions: 30% FS formulation; for % Germination in Mineral soil in Standard conditions: standard watered conditions (moisture above 80%); for % Germination in Organic soil in Draught conditions: drought conditions (re-watering at 45% pot moisture). An excerpt: (§1) Watering cycles—The level of stress is created by watering the pots based on the % of pot moisture as measured by wireless probes. Depending on weather conditions the number of cycles vary as needed.
(§2) The % of moisture triggers the watering process independent of the time that it takes to reach this point.
(§3) In “well-watered conditions” or “standard watered conditions”, in pots the % moisture is kept above 80%.
(§4) In “drought conditions”, in the pots re-watering happens at 45% pot moisture.
(§5) “Untreated” means that the seed has not been exposed to the compound I (a).
(§6) The treaments(s) were applied directly over the planted seed at the rates found in the table(s) below. Seeds were then covered and the % rate of germination was calculated at 21 days after planting.
(§7) The % rate of germination was calculated as the number of seeds that emerged divided by the number of seeds planted and presented as as a percentage.
(§8) Seeds were planted in two types of soil (Mineral and Organic) which were free of pest (insects, weeds, or diseases) to avoid interactions with the treatments applied
Example 1: Increase in % of Germination in Maize (Corn) by Drench Treatment

A further assay relates to Wheat. The assay is described as follows: % germination in wheat by seed treatment, 21 days after planting. Conditions: 0.5 mg of (la)/plant, 30% FS formulation. It is filed as in vivo.
Description: as §1, §2, §3, §4, §5, §6, §7, §8
Example 2: Increase % Germination in Wheat by Seed Treatement

As to `CN(C(=O)c1ccccc1)c1cccc(C(=O)Nc2c(Br)cc(C(F)(C(F)(F)F)C(F)(F)F)cc2C(F)(F)F)c1F` [(la)], the “% Germination in Mineral soil in Standard conditions” value was determined as 100% in the assay on Maize (Corn) (0.5 mg of (la)/plant); 100% in the assay on Maize (Corn) (1 mg of (la)/plant); 95% in the assay with Wheat (mineral soil, standard watered conditions (moisture above 80%)). The “% Germination in Organic soil in Draught conditions” value was 98% in the assay on Maize (Corn) (0.5 mg of (la)/plant); 100% in the assay on Maize (Corn) (1 mg of (la)/plant); 95% with Wheat (organic soil, drought conditions (re-watering at 45% pot moisture)). In addition, the “% Germination in Organic soil in Standard conditions” value in the assay with Wheat (organic soil, standard watered conditions (moisture above 80%)) was determined as 100%.
